Measurements taken from ChEMBL document CHEMBL5512685, “Discovery of a Promising CBP/p300 Degrader XYD129 for the Treatment of Acute Myeloid Leukemia” (J Med Chem, 2024).
pIC50: −log10 of the molar value.

How the values were obtained:
[1] = tested on: MV4-11; assay: Antiproliferative activity against human MV4-11 cells assessed as inhibition of cell growth incubated for 120 hrs by celltiter glo luminescence analysis; assay type: functional, cell-based; details: MV4-11, 120 h
[2] = tested on: MV4-11; assay: Potency index, ratio of Y08207 IC50 to test compound IC50 for antiproliferative activity against human MV4-11 cells assessed as inhibition of cell growth incubated for 120 hrs by celltiter glo luminescence analysis; assay type: functional
[3] = biological target: CREB-binding protein (Homo sapiens, UniProt Q92793); assay: Inhibition of C-terminal biotinylated tetra-acetylated histone peptide H4 binding to His6-fused human CBP bromodomain (R1081 to G1197 residues) incubated for 1 hrs by HTRF assay
[4] = biological target: Histone acetyltransferase p300 (Homo sapiens, UniProt Q09472); assay: Inhibition of C-terminal biotinylated tetra-acetylated histone peptide H4 binding to His6-fused human p300 bromodomain (A1040 to G1161 residues) incubated for 1 hrs by HTRF assay
[5] = biological target: Protein cereblon (Homo sapiens, UniProt Q96SW2); assay: Inhibition of biotinylated thalidomide binding to CRBN (40 to 442 residues) (unknown origin) incubated for 1 hrs by HTRF assay

With `CC(=O)c1cc(C(=O)Nc2cc(CO)cc(-c3cnn(C)c3)c2F)c2cc(OCCCC(=O)NCCCCCCCCNc3cccc4c3C(=O)N(C3CCC(=O)NC3=O)C4=O)ccn12` (configuration not stated) the pIC50 [1] was less than 4.70.

In the case of `CC(=O)c1cc(C(=O)Nc2cc(CO)cc(-c3cnn(C)c3)c2F)c2cc(OCC(=O)NCCCCNc3ccc4c(c3)C(=O)N(C3CCC(=O)NC3=O)C4=O)ccn12` (configuration not stated), the pIC50 [1] was less than 4.70.

For `CC(=O)c1cc(C(=O)Nc2cc(CO)cc(-c3cnn(C)c3)c2F)c2cc(OC3CCN(C(=O)CCOCCOCCNc4cccc5c4C(=O)N(C4CCC(=O)NC4=O)C5=O)CC3)ccn12` (configuration not stated), the pIC50 [1] was 4.95.

For `CC(=O)c1cc(C(=O)Nc2cc(CO)cc(-c3cnn(C)c3)c2F)c2cc(OCCCCCCC(=O)NCC#Cc3cccc4c3C(=O)N(C3CCC(=O)NC3=O)C4=O)ccn12` (configuration not stated), the “Ratio IC50” value [2] was roughly 2 and the pIC50 [1] was 5.41.

Molecule `CC(=O)c1cc(C(=O)Nc2cc(CO)cc(-c3cnn(C)c3)c2F)c2cc(OCCCCCCCC(=O)NCCCc3cccc4c3C(=O)N(C3CCC(=O)NC3=O)C4=O)ccn12` (configuration not stated) has a pIC50 [1] of 5.90.

`CC(=O)c1cc(C(=O)Nc2cc(CO)cc(-c3cnn(C)c3)c2F)c2cc(OCCCC(=O)NCC#Cc3cccc4c3C(=O)N(C3CCC(=O)NC3=O)C4=O)ccn12` (configuration not stated) showed a pIC50 [1] of 4.63.

Molecule `CC(=O)c1cc(C(=O)Nc2cc(CO)cc(-c3cnn(C)c3)c2F)c2cc(OC3CCN(C(=O)CCOCCOCCOCCNc4cccc5c4C(=O)N(C4CCC(=O)NC4=O)C5=O)CC3)ccn12` (configuration not stated) has a pIC50 [1] of 5.27.

Work on `CC(=O)c1cc(C(=O)Nc2cc(CO)cc(-c3cnn(C)c3)c2F)c2cc(OCCCC(=O)NCCCc3cccc4c3C(=O)N(C3CCC(=O)NC3=O)C4=O)ccn12` (configuration not stated) yielded a pIC50 [1] of 5.83.

With `CC(=O)c1cc(C(=O)Nc2cc(CO)cc(-c3cnn(C)c3)c2F)c2cc(OCC(=O)NCC#Cc3cccc4c3C(=O)N(C3CCC(=O)NC3=O)C4=O)ccn12` (configuration not stated) the pIC50 [1] was 4.64.

In the case of `CC(=O)c1cc(C(=O)Nc2cc(CO)cc(-c3cnn(C)c3)c2F)c2cc(OCC(=O)NCCCc3cccc4c3C(=O)N(C3CCC(=O)NC3=O)C4=O)ccn12` (configuration not stated), the pIC50 [1] was 5.12.

For `CC(=O)c1cc(C(=O)Nc2cc(CO)cc(-c3cnn(C)c3)c2F)c2cc(OCCCCCCCC(=O)NCC#Cc3cccc4c3C(=O)N(C3CCC(=O)NC3=O)C4=O)ccn12` (configuration not stated), the “Ratio IC50” value [2] was roughly 2 and the pIC50 [1] was 5.49.

Work on `CC(=O)c1cc(C(=O)Nc2cc(CO)cc(-c3cnn(C)c3)c2F)c2cc(OCCCCCC(=O)NCC#Cc3cccc4c3C(=O)N(C3CCC(=O)NC3=O)C4=O)ccn12` (configuration not stated) yielded a pIC50 [1] of 4.88.

For `CC(=O)c1cc(C(=O)Nc2cc(CO)cc(-c3cnn(C)c3)c2F)c2cc(OCCCCCCC(=O)NCCCc3cccc4c3C(=O)N(C3CCC(=O)NC3=O)C4=O)ccn12` (configuration not stated), the pIC50 [3] was 7.44, the pIC50 [4] was 7.29 and the pIC50 [1] was 5.99. The pIC50 [5] was 5.15.

`CC(=O)c1cc(C(=O)Nc2cc(CO)cc(-c3cnn(C)c3)c2F)c2cc(OCCCC(=O)NCCNc3ccc4c(c3)C(=O)N(C3CCC(=O)NC3=O)C4=O)ccn12` (configuration not stated) gave a pIC50 [1] of 4.75.

In the case of `CC(=O)c1cc(C(=O)Nc2cc(CO)cc(-c3cnn(C)c3)c2F)c2cc(OC3CCN(C(=O)CCOCCOCCOCCOCCNc4cccc5c4C(=O)N(C4CCC(=O)NC4=O)C5=O)CC3)ccn12` (configuration not stated), the pIC50 [1] was 5.31.

Molecule `CC(=O)c1cc(C(=O)Nc2cc(CO)cc(-c3cnn(C)c3)c2F)c2cc(OCC(=O)NCCNc3cccc4c3C(=O)N(C3CCC(=O)NC3=O)C4=O)ccn12` (configuration not stated) has a pIC50 [1] of less than 4.70.

`CC(=O)c1cc(C(=O)Nc2cc(CO)cc(-c3cnn(C)c3)c2F)c2cc(OCCCC(=O)NCCCCCCNc3cccc4c3C(=O)N(C3CCC(=O)NC3=O)C4=O)ccn12` (configuration not stated) showed a pIC50 [1] of less than 4.70.

With `CC(=O)c1cc(C(=O)Nc2cc(CO)cc(-c3cnn(C)c3)c2F)c2cc(OCCCCC(=O)NCC#Cc3cccc4c3C(=O)N(C3CCC(=O)NC3=O)C4=O)ccn12` (configuration not stated) the pIC50 [1] was 4.67.

For `CC(=O)c1cc(C(=O)Nc2cc(CO)cc(-c3cnn(C)c3)c2F)c2cc(OCCCC(=O)NCCCCNc3cccc4c3C(=O)N(C3CCC(=O)NC3=O)C4=O)ccn12` (configuration not stated), the pIC50 [1] was less than 4.70.

With `CC(=O)c1cc(C(=O)Nc2cc(CO)cc(-c3cnn(C)c3)c2F)c2cc(OC3CCN(C(=O)CCOCCNc4cccc5c4C(=O)N(C4CCC(=O)NC4=O)C5=O)CC3)ccn12` (configuration not stated) the pIC50 [1] was 5.10.

For `CC(=O)c1cc(C(=O)Nc2cc(CO)cc(-c3cnn(C)c3)c2F)c2cc(OCC(=O)NCCCNc3cccc4c3C(=O)N(C3CCC(=O)NC3=O)C4=O)ccn12` (configuration not stated), the “Ratio IC50” value [2] was 6 and the pIC50 [1] was 5.97.
